This is an account of results in PubChem BioAssay (NCI).

Among the test systems are U251 CNS; MDA-MB-435; SNB-19 CNS; SK-MEL-5 melanoma; HS 578T breast; IGROV1 ovarian; SW-620 colon; MDA-MB-231 breast; BT-549 breast; HCC-2998 colon; NCI-H460 lung; NCI-H23 lung; SN12C renal; M14 melanoma; HCT-116 colon; OVCAR-4 ovarian; NCI-H522 lung; OVCAR-3 ovarian; UACC-257 melanoma; SR leukemia.
Common to all, as to assay: NCI-60 cell line screen, 48 h

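Cells were grown in 96-well plates and exposed to each compound for 48 hours at five concentrations; endpoints were interpolated linearly between bracketing concentrations, or set to the highest concentration if not reached. At the TGI there is no net growth.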

For the compound `CC1(C)[C@H]2Cc3cc4nc5ccccn5c4cc3[C@@H]1C2`, the TGI is 34.2 µM in the test on U251 CNS; 36.7 µM in the test with MDA-MB-435; 31.8 µM in the test with SNB-19 CNS; 34.3 µM in the test with SK-MEL-5 melanoma; 37.7 µM with HS 578T breast; 43 µM in the test with IGROV1 ovarian. In addition, the TGI turned out to be 52.5 µM with SW-620 colon; 27.1 µM with MDA-MB-231 breast; 41.5 µM in the test on BT-549 breast; 37 µM in the test on HCC-2998 colon; 38.8 µM in the test with NCI-H460 lung; 32.4 µM in the test with NCI-H23 lung. Also, the TGI with SN12C renal was determined as 35.8 µM; in the test on M14 melanoma, 38.2 µM; in the test on HCT-116 colon, 33 µM; in the test on OVCAR-4 ovarian, 26 µM; in the test with NCI-H522 lung, 21.9 µM; in the test with OVCAR-3 ovarian, 35.6 µM. This compound came in with a TGI in the test with UACC-257 melanoma of 34.2 µM.
For `C#CCn1c(=O)ccn(/C(=C/C(=O)OCC)C(=O)OCC)c1=O`, the TGI with U251 CNS is 35.4 µM; in the test with MDA-MB-435 it was 28.1 µM; with SR leukemia it was above 100 µM; with SNB-19 CNS, 40.7 µM; in the test on SK-MEL-5 melanoma it was 31 µM; in the test on HS 578T breast, 43.5 µM. Moreover, the TGI with IGROV1 ovarian worked out at 13.8 µM; in the test with MDA-MB-231 breast, 40.9 µM; in the test with BT-549 breast, 23.2 µM; with NCI-H460 lung, 10.3 µM; with NCI-H23 lung, 25.1 µM; in the test on SN12C renal it was 29.5 µM. Moreover, the TGI in the test with M14 melanoma was found to be 11.8 µM; with HCT-116 colon, 18.7 µM; in the test on OVCAR-4 ovarian, 17.8 µM; in the test on OVCAR-3 ovarian it was 13.7 µM; in the test with UACC-257 melanoma it was 29.6 µM.
For the compound `CC1CC(=O)Nc2ccccc2N1C(=O)C1CC1` (stereo not drawn), the TGI in the test on U251 CNS, in the test on MDA-MB-435, in the test with SNB-19 CNS, with SK-MEL-5 melanoma, in the test with HS 578T breast and in the test on IGROV1 ovarian was above 100 µM throughout. The TGI in the test with SW-620 colon, in the test on MDA-MB-231 breast, with BT-549 breast, in the test with HCC-2998 colon, with NCI-H460 lung and in the test with NCI-H23 lung was above 100 µM each time. Besides, the TGI in the test on SN12C renal, in the test on M14 melanoma, in the test on HCT-116 colon, in the test with OVCAR-4 ovarian, in the test with NCI-H522 lung and in the test with OVCAR-3 ovarian was above 100 µM in each case. In addition, the TGI with UACC-257 melanoma was above 100 µM.
For `CC(C)CC1N=C(OCc2ccccc2)OC1=O` (stereo not drawn), the TGI in the test on U251 CNS, with MDA-MB-435, with SNB-19 CNS, in the test on SK-MEL-5 melanoma, with HS 578T breast and with IGROV1 ovarian was above 100 µM each time. The TGI in the test on SW-620 colon, in the test with MDA-MB-231 breast, in the test on BT-549 breast, with NCI-H460 lung, in the test with NCI-H23 lung and with SN12C renal was above 100 µM throughout. The TGI in the test with M14 melanoma, in the test on HCT-116 colon, in the test on OVCAR-4 ovarian, in the test on NCI-H522 lung, with OVCAR-3 ovarian and with UACC-257 melanoma was above 100 µM in each case.
As to `Cn1c(=O)c2c(=O)cc(N)[nH]c2n(C)c1=O`, the TGI with U251 CNS, in the test on MDA-MB-435, with SNB-19 CNS, in the test with SK-MEL-5 melanoma, in the test with HS 578T breast and in the test on IGROV1 ovarian was above 100 µM each time. Also, the TGI in the test on SW-620 colon, in the test on MDA-MB-231 breast, in the test with BT-549 breast, in the test on HCC-2998 colon, with NCI-H460 lung and in the test with NCI-H23 lung was above 100 µM each time. For the same compound, the TGI in the test on SN12C renal, in the test on M14 melanoma, in the test with HCT-116 colon, in the test with OVCAR-4 ovarian, with NCI-H522 lung and with OVCAR-3 ovarian was above 100 µM throughout. The TGI in the test on UACC-257 melanoma was above 100 µM.
In the case of `O=C1CN(c2ccccc2)C(=O)CN1NCNN1CC(=O)N(c2ccccc2)CC1=O`, the TGI in the test with U251 CNS, in the test on MDA-MB-435, in the test with SR leukemia, in the test with SNB-19 CNS, in the test with SK-MEL-5 melanoma and with HS 578T breast was above 100 µM each time. The TGI with IGROV1 ovarian, in the test on SW-620 colon, in the test with BT-549 breast, with HCC-2998 colon, with NCI-H460 lung and in the test with NCI-H23 lung was above 100 µM throughout. Moreover, the TGI in the test on SN12C renal, in the test with M14 melanoma, in the test with HCT-116 colon, in the test with OVCAR-4 ovarian, in the test on NCI-H522 lung and in the test on OVCAR-3 ovarian was above 100 µM throughout. The compound also yielded a TGI in the test with UACC-257 melanoma above 100 µM.
`O=C1N[C@H](C(=O)O)[C@@H](c2ccc(OCc3ccccc3)cc2)O1`: the TGI with U251 CNS was above 100 µM; with MDA-MB-435 it was above 100 µM; in the test on SNB-19 CNS, 45 µM; in the test with SK-MEL-5 melanoma it was above 100 µM; in the test on HS 578T breast, above 100 µM; in the test with IGROV1 ovarian, 78.6 µM. The TGI in the test on SW-620 colon was above 100 µM; with MDA-MB-231 breast, 51.4 µM; in the test with BT-549 breast it was above 100 µM; with HCC-2998 colon, above 100 µM; with NCI-H23 lung, above 100 µM; in the test on SN12C renal, above 100 µM. Moreover, the TGI in the test with M14 melanoma, in the test on HCT-116 colon, in the test on OVCAR-4 ovarian, in the test with NCI-H522 lung, with OVCAR-3 ovarian and with UACC-257 melanoma was above 100 µM throughout.
Take `OCC1OC(n2cnc3c(Cl)nc(Nc4ccc(Cl)c(Cl)c4)nc32)CC1O` (stereo not drawn): the TGI was 23.8 µM in the test on U251 CNS; 22.3 µM in the test with MDA-MB-435; above 50 µM with SNB-19 CNS; 16.9 µM in the test on SK-MEL-5 melanoma; 32.3 µM with HS 578T breast; 27.8 µM in the test with IGROV1 ovarian. Moreover, the TGI in the test on SW-620 colon is 27.5 µM; in the test on MDA-MB-231 breast, 23.5 µM; with BT-549 breast, 22.3 µM; with HCC-2998 colon, 17.1 µM; in the test with NCI-H460 lung, 16.8 µM; in the test on NCI-H23 lung, 22.6 µM. For the same compound, the TGI is 23.4 µM in the test on SN12C renal; 32 µM in the test with M14 melanoma; 28.9 µM with HCT-116 colon; 41.8 µM in the test with OVCAR-4 ovarian; 18.1 µM in the test with NCI-H522 lung; 46.1 µM with OVCAR-3 ovarian. Also, the TGI in the test on UACC-257 melanoma amounted to 20 µM.
